In US20230172209A1, “FUNGICIDAL COMPOSITIONS” (SYNGENTA CROP PROTECTION AG, priority 2020, published 2023):

Assays:
Format in all cases: cell-based
[1] = test system: Septoria glycines; test: Septoria glycines growth inhibition in liquid culture (microtiter plate, visual)
Source text: A synergistic effect exists whenever the action of an active ingredient combination is greater than the sum of the actions of the individual components. The action to be expected E for a given active ingredient combination obeys the so-called COLBY formula and can be calculated as follows (COLBY, S. R. “Calculating synergistic and antagonistic responses of herbicide combination”. Weeds, Vol. 15, pages 20-22; 1967): • ppm=milligrams of active ingredient (=a.i.) per liter of spray mixture • X=% action by active ingredient A) using p ppm of active ingredient • Y=% action by active ingredient B) using q ppm of active ingredient. According to COLBY, the expected (additive) action of active ingredients A)+B) using p+q ppm of active ingredient is: If the action actually observed (O) is greater than the expected action (E), then the action of the combination is super-additive, i.e. there is a synergistic effect. In mathematical terms, synergism corresponds to a positive value for the difference of (O-E). In the case of purely complementary addition of activities (expected activity), said difference (O-E) is zero. A negative value of said difference (O-E) signals a loss of activity compared to the expected activity. Septoria glycines (Brown Spot): Conidia of the fungus from cryogenic storage were directly mixed into nutrient broth ([…] potato dextrose broth). A DMSO solution of the test compounds was placed into a microtiter plate (96-well format) and the nutrient broth containing the fungal spores was added to it. The test plates were incubated at 24° C. and the inhibition of growth was determined visually after 72 hrs.

[2] = test system: Mycosphaerella arachidis Syn. Cercospora arachidicola; test: Mycosphaerella arachidis growth inhibition in liquid culture (microtiter plate, photometric); settings: A-1.3 0 ppm
Source text: A synergistic effect exists whenever the action of an active ingredient combination is greater than the sum of the actions of the individual components. The action to be expected E for a given active ingredient combination obeys the so-called COLBY formula and can be calculated as follows (COLBY, S. R. “Calculating synergistic and antagonistic responses of herbicide combination”. Weeds, Vol. 15, pages 20-22; 1967): • ppm=milligrams of active ingredient (=a.i.) per liter of spray mixture • X=% action by active ingredient A) using p ppm of active ingredient • Y=% action by active ingredient B) using q ppm of active ingredient. According to COLBY, the expected (additive) action of active ingredients A)+B) using p+q ppm of active ingredient is: If the action actually observed (O) is greater than the expected action (E), then the action of the combination is super-additive, i.e. there is a synergistic effect. In mathematical terms, synergism corresponds to a positive value for the difference of (O-E). In the case of purely complementary addition of activities (expected activity), said difference (O-E) is zero. A negative value of said difference (O-E) signals a loss of activity compared to the expected activity. Mycosphaerella arachidis Syn. Cercospora arachidicola (Brown Leaf Spot of Peanut): Conidia of the fungus from cryogenic storage were directly mixed into nutrient broth (PDB potato dextrose broth). A DMSO solution of the test compounds was placed into a microtiter plate (96-well format) and the nutrient broth containing the fungal spores was added to it. The test plates were incubated at 24° C. and the inhibition of growth was determined photometrically after 5-6 days at 620 nm.

[3] = test system: Corynespora cassiicola; test: Corynespora cassiicola growth inhibition in liquid culture (microtiter plate, photometric); settings: A-1.3 0 ppm
Source text: A synergistic effect exists whenever the action of an active ingredient combination is greater than the sum of the actions of the individual components. The action to be expected E for a given active ingredient combination obeys the so-called COLBY formula and can be calculated as follows (COLBY, S. R. “Calculating synergistic and antagonistic responses of herbicide combination”. Weeds, Vol. 15, pages 20-22; 1967): • ppm=milligrams of active ingredient (=a.i.) per liter of spray mixture • X=% action by active ingredient A) using p ppm of active ingredient • Y=% action by active ingredient B) using q ppm of active ingredient. According to COLBY, the expected (additive) action of active ingredients A)+B) using p+q ppm of active ingredient is: If the action actually observed (O) is greater than the expected action (E), then the action of the combination is super-additive, i.e. there is a synergistic effect. In mathematical terms, synergism corresponds to a positive value for the difference of (O-E). In the case of purely complementary addition of activities (expected activity), said difference (O-E) is zero. A negative value of said difference (O-E) signals a loss of activity compared to the expected activity. Corynespora cassiicola (Target Spot of Soybean, Target Leaf Spot of Tomato): Conidia of the fungus from cryogenic storage were directly mixed into nutrient broth (PDB potato dextrose broth). A DMSO solution of the test compounds was placed into a microtiter plate (96-well format) and the nutrient broth containing the fungal spores was added to it. The test plates were incubated at 24° C. and the inhibition of growth was determined photometrically after 3-4 days at 620 nm. Rates and results are set out in the following tables: […]

[4] = test system: Septoria tritici; test: Septoria tritici growth inhibition in liquid culture (microtiter plate, photometric)
Source text: A synergistic effect exists whenever the action of an active ingredient combination is greater than the sum of the actions of the individual components. The action to be expected E for a given active ingredient combination obeys the so-called COLBY formula and can be calculated as follows (COLBY, S. R. “Calculating synergistic and antagonistic responses of herbicide combination”. Weeds, Vol. 15, pages 20-22; 1967): • ppm=milligrams of active ingredient (=a.i.) per liter of spray mixture • X=% action by active ingredient A) using p ppm of active ingredient • Y=% action by active ingredient B) using q ppm of active ingredient. According to COLBY, the expected (additive) action of active ingredients A)+B) using p+q ppm of active ingredient is: If the action actually observed (O) is greater than the expected action (E), then the action of the combination is super-additive, i.e. there is a synergistic effect. In mathematical terms, synergism corresponds to a positive value for the difference of (O-E). In the case of purely complementary addition of activities (expected activity), said difference (O-E) is zero. A negative value of said difference (O-E) signals a loss of activity compared to the expected activity. Septoria tritici (Leaf Blotch): Conidia of the fungus from cryogenic storage were directly mixed into nutrient broth (PDB potato dextrose broth). A DMSO solution of the test compounds was placed into a microtiter plate (96-well format) and the nutrient broth containing the fungal spores was added to it. The test plates were incubated at 24° C. and the inhibition of growth was determined photometrically after 72 hrs.

## CO/C=C(/C(=O)OC)c1ccccc1CSc1nc2ccccc2s1 [Benzothiostrobin]
[1]; Table 22: A-1.3 0 ppm, Benzothiostrobin 0.0125 ppm
  Observed Activity (%): 50%
[1]; Table 22: A-1.3 0 ppm, Benzothiostrobin 0.025 ppm
  Observed Activity (%): 70%
[1]; Table 22: A-1.3 0 ppm, Benzothiostrobin 0.05 ppm
  Observed Activity (%): 90%
[1]; Table 22: A-1.3 0 ppm, Benzothiostrobin 0.1 ppm
  Observed Activity (%): 90%
[1]; Table 22: A-1.3 0 ppm, Benzothiostrobin 0.2 ppm
  Observed Activity (%): 90%

## Cc1cccc(-n2nnn(C)c2=O)c1COc1ccn(-c2ccc(Cl)cc2)n1 [Metyltetraprole]
[1]; Table 19: A-1.3 0 ppm, Metyltetraprole 0.003125 ppm
  Observed Activity (%): 50%
[1]; Table 19: A-1.3 0 ppm, Metyltetraprole 0.00625 ppm
  Observed Activity (%): 70%
[1]; Table 19: A-1.3 0 ppm, Metyltetraprole 0.0125 ppm
  Observed Activity (%): 90%
[1]; Table 23: A-1.3 0 ppm, Metyltetraprole 0.003125 ppm
  Observed Activity (%): 20%
[1]; Table 23: A-1.3 0 ppm, Metyltetraprole 0.00625 ppm
  Observed Activity (%): 70%
[1]; Table 23: A-1.3 0 ppm, Metyltetraprole 0.0125 ppm
  Observed Activity (%): 70%
[1]; Table 23: A-1.3 0 ppm, Metyltetraprole 0.025 ppm
  Observed Activity (%): 90%
[1]; Table 23: A-1.3 0 ppm, Metyltetraprole 0.05 ppm
  Observed Activity (%): 90%
[1]; Table 23: A-1.3 0 ppm, Metyltetraprole 0.1 ppm
  Observed Activity (%): 90%

## COc1c(F)c(F)c(C(=O)NCc2ncc(C(F)(F)F)cc2Cl)c(F)c1F [Fluopimomide]
[1]; Table 20: A-1.3 0 ppm, Fluopimomide 1.25 ppm
  Observed Activity (%): 0%
[1]; Table 20: A-1.3 0 ppm, Fluopimomide 2.5 ppm
  Observed Activity (%): 0%
[1]; Table 20: A-1.3 0 ppm, Fluopimomide 5 ppm
  Observed Activity (%): 0%
[1]; Table 20: A-1.3 0 ppm, Fluopimomide 10 ppm
  Observed Activity (%): 0%
[1]; Table 20: A-1.3 0 ppm, Fluopimomide 20 ppm
  Observed Activity (%): 0%

## Cc1nc2c(F)c(F)ccc2cc1Oc1cccc(F)c1C(C)(C)O [Ipflufenoquin]
[1]; Table 16: A-1.3 0 ppm, Ipflufenoquin 0.6125 ppm
  Observed Activity (%): 70%
[1]; Table 16: A-1.3 0 ppm, Ipflufenoquin 1.25 ppm
  Observed Activity (%): 90%

## COc1cc(C)c(C(=O)c2c(OC)ncc(Cl)c2C)c(OC)c1OC [Pyriofenone]
[2]; Pyriofenone 2.5 ppm
  Observed Activity (%): 0%
[2]; Pyriofenone 5 ppm
  Observed Activity (%): 0%
[2]; Pyriofenone 10 ppm
  Observed Activity (%): 0%
[2]; Pyriofenone 20 ppm
  Observed Activity (%): 0%
[1]; Table 21: A-1.3 0 ppm, Pyriofenone 1.25 ppm
  Observed Activity (%): 20%
[1]; Table 21: A-1.3 0 ppm, Pyriofenone 2.5 ppm
  Observed Activity (%): 20%
[1]; Table 21: A-1.3 0 ppm, Pyriofenone 5 ppm
  Observed Activity (%): 20%
[1]; Table 21: A-1.3 0 ppm, Pyriofenone 10 ppm
  Observed Activity (%): 20%
[1]; Table 21: A-1.3 0 ppm, Pyriofenone 20 ppm
  Observed Activity (%): 20%

## CNC(=O)C(OC)c1ccccc1COc1cc(C)ccc1C (stereo not shown) [Mandestrobin]
[1]; Table 17: A-1.3 0 ppm, Mandestrobin 0.125 ppm
  Observed Activity (%): 50%
[1]; Table 17: A-1.3 0 ppm, Mandestrobin 0.25 ppm
  Observed Activity (%): 70%
[1]; Table 17: A-1.3 0 ppm, Mandestrobin 0.5 ppm
  Observed Activity (%): 90%
[1]; Table 18: A-1.3 0 ppm, Mandestrobin 0.25 ppm
  Observed Activity (%): 70%
[1]; Table 18: A-1.3 0 ppm, Mandestrobin 0.5 ppm
  Observed Activity (%): 70%
[1]; Table 18: A-1.3 0 ppm, Mandestrobin 1 ppm
  Observed Activity (%): 90%

## CN1OC(c2ccc(Cl)cc2)CC1(C)c1cccnc1 (stereo not shown) [Pyrisoxazole]
[3]; Pyrisoxazole 0.5 ppm
  Observed Activity (%): 20%
[3]; Pyrisoxazole 1 ppm
  Observed Activity (%): 70%
[4]; Table 11: A-1.3 0 ppm, Pyrisoxazole 0.25 ppm
  Observed Activity (%): 0%
[4]; Table 11: A-1.3 0 ppm, Pyrisoxazole 0.5 ppm
  Observed Activity (%): 20%
[4]; Table 12: A-1.3 0 ppm, Pyrisoxazole 0.0625 ppm
  Observed Activity (%): 0%
[4]; Table 12: A-1.3 0 ppm, Pyrisoxazole 0.125 ppm
  Observed Activity (%): 0%
[4]; Table 12: A-1.3 0 ppm, Pyrisoxazole 0.25 ppm
  Observed Activity (%): 0%
[4]; Table 12: A-1.3 0 ppm, Pyrisoxazole 0.5 ppm
  Observed Activity (%): 70%
[4]; Table 12: A-1.3 0 ppm, Pyrisoxazole 1 ppm
  Observed Activity (%): 90%

## O=C(NC1CCC1c1ccc(Cl)cc1Cl)c1cccnc1C(F)(F)F (stereo in doubt) [Cyclobutrifluram]
[3]; Cyclobutrifluram 0.0125 ppm
  Observed Activity (%): 0%
[3]; Cyclobutrifluram 0.025 ppm
  Observed Activity (%): 20%
[3]; Cyclobutrifluram 0.05 ppm
  Observed Activity (%): 50%
[1]; Table 13: A-1.3 0 ppm, Cyclobutrifluram 0.05 ppm
  Observed Activity (%): 70%
[1]; Table 13: A-1.3 0 ppm, Cyclobutrifluram 0.1 ppm
  Observed Activity (%): 90%
[1]; Table 13: A-1.3 0 ppm, Cyclobutrifluram 0.2 ppm
  Observed Activity (%): 90%
[1]; Table 14: A-1.3 0 ppm, Cyclobutrifluram 0.0125 ppm
  Observed Activity (%): 20%
[1]; Table 14: A-1.3 0 ppm, Cyclobutrifluram 0.025 ppm
  Observed Activity (%): 50%
[1]; Table 14: A-1.3 0 ppm, Cyclobutrifluram 0.05 ppm
  Observed Activity (%): 70%
[1]; Table 14: A-1.3 0 ppm, Cyclobutrifluram 0.1 ppm
  Observed Activity (%): 70%
[1]; Table 14: A-1.3 0 ppm, Cyclobutrifluram 0.2 ppm
  Observed Activity (%): 90%

## COc1ccnc(C(=O)N[C@@H](C)C(=O)O[C@@H](C)C(c2ccc(F)cc2)c2ccc(F)cc2)c1OC(C)=O [Florylpicoxamid]
[1]; Table 15: A-1.3 0 ppm, Florylpicoxamid 0.05 ppm
  Observed Activity (%): 70%
[1]; Table 15: A-1.3 0 ppm, Florylpicoxamid 0.1 ppm
  Observed Activity (%): 90%
